Results from patent US12679877B2, “NPRA agonists, compositions, and uses thereof” (PharmaIn Corporation, priority 2017, dated 2026).
Non-standard residues stand in square brackets, D forms with d. No end group written: not given here. *: point of attachment. Stearoyl = CCCCCCCCCCCCCCCCCC(=O)*; Lauroyl = CCCCCCCCCCCC(=O)*

Tested on: natriuretic peptide receptors (NPRA or NPRB)
Assay: 2-point blood cGMP evaluation (2 and 6 hours) after 15 mg/Kg s.c., cGMP Direct Biotrak EIA
Assay type: in vivo, CD-1 mice
Details: for In vivo blood cGMP minus baseline, 2 hour (potency) / In vivo blood cGMP minus baseline, 6 hour (receptor depletion): 15 mg/Kg s.c. in mice (n=3), minus baseline 30 pmol/ml (n=12); for In vivo blood cGMP minus baseline, 2 hour (potency): 2 hours after dosing; for In vivo blood cGMP minus baseline, 6 hour (receptor depletion): 6 hours after dosing; for activity / potency compared to ANP, in words (2 hour data in Table 2) / apparent receptor depletion/internalization, in words (6 hour data in Table 2): 15 mg/Kg s.c. in mice, blood cGMP
Protocol: Various derivatives of ANP were made and screened for increase in vivo potency while limiting the apparent receptor depletion effects (or perhaps can act on another cGMP enhancing receptors) by looking at the level of blood cGMP at specific time points. […] Various derivatives were made and tested in vivo to determine the level of blood cGMP at 2 hours and 6 hours after subcutaneous administration of 15 mg/Kg in mice (which was allometrically equivalent to human dose of 1.5 mg/Kg) with the goal of finding derivatives that were therapeutically useful for increasing blood cGMP.
For 2-point cGMP evaluation of various derivatives, test samples were dissolved in water (Lonza, Wakersville, MD) before being lyophilized. Prior to use, the lyophilized test sample was dissolved in saline then 15 mg/Kg was injected subcutaneously into female CD-1 mice 6-8 weeks (n=3). Blood samples were collected at 2 and 6 hours with K2EDTA blood collection tube. The collection tube was then centrifuged at 13,000 rpm for 10 minutes at 4° C. to separate plasma. The plasma was analyzed using the cGMP Direct Biotrak EIA (GE Healthcare Life Sciences, Marlborough, MA). Note that by using allometric scaling at exponent of 0.7 [dose in other species=mice dose/((mouse weight/weight of average other species)^0.7)], the 15 mg/Kg in mice is equivalent to about 7.5 mg/Kg rat dose, about 2.5 mg/Kg dog dose, and 1.5 mg/Kg human dose. For the purpose the present disclosure, the 15 mg/Kg in mice as presented in the relevant data examples, should be understood as equivalent to about 7.5 mg/Kg rat dose, which is equivalent to about 2.5 mg/Kg dog dose, which is equivalent to about 1.5 mg/Kg human dose. Because the mice cGMP response to 15 mg/Kg dose of the newly discovered derivatives (see Table 2) was quite high, it would be prudent to use daily doses that are lower than 15 mg/Kg for mice, 7.5 mg/Kg for rat, 2.5 mg/Kg for dog, and 1.5 mg/Kg for human since any higher dose may result in too much increase in cGMP that can result in too much or even dangerous drop in blood pressure unless formulated in a very slow release delivery system. In fact based on cGMP response it was more preferable to use daily doses that are lower than […], 1.5 mg/Kg for rat, 0.5 mg/Kg for dog, and 0.3 mg/Kg for human. Additionally, the level of blood cGMP is preferably between 1.5 to 3-times of the normal baseline level. The blood or plasma cGMP normal baseline level was about 20-50 pmol/ml but could vary slightly depending on the assay kit used to measure the level.

| Substance | In vivo blood cGMP minus baseline, 2 hour (potency) | In vivo blood cGMP minus baseline, 6 hour (receptor depletion) | activity / potency compared to ANP, in words (2 hour data in Table 2) | apparent receptor depletion/internalization, in words (6 hour data in Table 2) |
| --- | --- | --- | --- | --- |
| CH3(CH2)10CO-KKGGGSLRRSSCFGGRMDRIGAQSGLGCNSFRY (Lauroyl-KKGGGSLRRSSCFGGRMDRIGAQSGLGCNSFRY; not fully specified (bridges); printed as CH3(CH2)10CO-KKGGGSLRRSSCFGGRMDRIGAQSGLGCNSFRY; cysteine pairing not given here; listed as Homo Sapiens) [SEQ ID NO. 9] | 163.62 nM | 4.78 pmol/mL | increased potency |  |
| CH3(CH2)10CO-KKKGGGSLRRSSCFGGRMDRIGAQSGLGCNSFRY (Lauroyl-KKKGGGSLRRSSCFGGRMDRIGAQSGLGCNSFRY; not fully specified (bridges); printed as CH3(CH2)10CO-KKKGGGSLRRSSCFGGRMDRIGAQSGLGCNSFRY; cysteine pairing not given here; listed as Homo Sapiens) [SEQ ID NO. 11] | 136.16 nM | 10.28 pmol/mL | increased potency |  |
| CH3(CH2)10CO-KKKKGGGSLRRSSCFGGRMDRIGAQSGLGCNSFRY (Lauroyl-KKKKGGGSLRRSSCFGGRMDRIGAQSGLGCNSFRY; not fully specified (bridges); printed as CH3(CH2)10CO-KKKKGGGSLRRSSCFGGRMDRIGAQSGLGCNSFRY; cysteine pairing not given here; listed as Homo Sapiens) [SEQ ID NO. 15] | 60.52 nM | 3.36 pmol/mL | increased potency | prevented apparent receptor depletion/internalization |
| CH3(CH2)16CO-KKGGGSLRRSSCFGGRMDRIGAQSGLGCNSFRY (Stearoyl-KKGGGSLRRSSCFGGRMDRIGAQSGLGCNSFRY; not fully specified (bridges); printed as CH3(CH2)16CO-KKGGGSLRRSSCFGGRMDRIGAQSGLGCNSFRY; cysteine pairing not given here; listed as Homo Sapiens) [SEQ ID NO. 10] | 183.12 nM | 14.78 pmol/mL | increased potency |  |
| CH3(CH2)16CO-KKKGGGSLRRSSCFGGRMDRIGAQSGLGCNSFRY (Stearoyl-KKKGGGSLRRSSCFGGRMDRIGAQSGLGCNSFRY; not fully specified (bridges); printed as CH3(CH2)16CO-KKKGGGSLRRSSCFGGRMDRIGAQSGLGCNSFRY; cysteine pairing not given here; listed as Homo Sapiens) [SEQ ID NO. 14] | 574.25 nM | 255.75 pmol/mL | increased potency |  |
| CH3(CH2)16CO-KKKKGGGSLRRSSCFGGRMDRIGAQSGLGCNSFRY (Stearoyl-KKKKGGGSLRRSSCFGGRMDRIGAQSGLGCNSFRY; not fully specified (bridges); printed as CH3(CH2)16CO-KKKKGGGSLRRSSCFGGRMDRIGAQSGLGCNSFRY; cysteine pairing not given here; listed as Homo Sapiens) [SEQ ID NO. 18] | 355.17 nM | 231.65 pmol/mL | increased potency | prevented apparent receptor depletion/internalization |
| CH3(CH2)16CO-KKKKSLRRSSCFGGRMDRIGAQSGLGCNSFRY (Stearoyl-KKKKSLRRSSCFGGRMDRIGAQSGLGCNSFRY; not fully specified (bridges); cysteine pairing not given here; listed as Homo Sapiens) [SEQ ID NO. 35] | 45.00 nM | 12.79 pmol/mL | slightly increased in activity | no significant effect on apparent receptor internalization |
| CH3(CH2)16CO-KKKKSLRRSSCFGGRMDRIGAQSGLGCNSFrY (Stearoyl-KKKKSLRRSSCFGGRMDRIGAQSGLGCNSF[dR]Y; not fully specified (bridges); printed as KKKKSLRRSSCFGGRMDRIGAQSGLGCNSFrY; cysteine pairing not given here; listed as Homo Sapiens) [SEQ ID NO. 36] | inactive | inactive |  |  |
| CH3(CH2)16CO-RRR-SGRGGGCFGGRMDRIGAQSGLGCNSFRY (Stearoyl-RRRSGRGGGCFGGRMDRIGAQSGLGCNSFRY; not fully specified (bridges); printed as CH3(CH2)16CO-RRR-SGRGGGCFGGRMDRIGAQSGLG; cysteine pairing not given here; listed as Homo Sapiens) [SEQ ID NO. 37] | 45.61 nM | 10.16 pmol/mL | limited increase in activity |  |
| CH3(CH2)16CO-RRR-SGRGSGCFGGRMDRIGAQSGLGCNSFRY (Stearoyl-RRRSGRGSGCFGGRMDRIGAQSGLGCNSFRY; not fully specified (bridges); printed as CH3(CH2)16CO-RRR-SGRGSGCFGGRMDRIGAQSGLG; cysteine pairing not given here; listed as Homo Sapiens) [SEQ ID NO. 38] | 33.56 nM | 7.97 pmol/mL | limited increase in activity |  |
| CH3(CH2)16CO-RRR-SLPRSSCFGGRMDRIGAQSGLGCNSFRY-NH2 (Stearoyl-RRRSLPRSSCFGGRMDRIGAQSGLGCNSFRY-NH2; not fully specified (bridges); printed as CH3(CH2)16CO-RRR-SLPRSSCFGGRMDRIGAQSGLG; cysteine pairing not given here; listed as Homo Sapiens) [SEQ ID NO. 39] | inactive | inactive | loss or diminished of activity |  |
| CH3(CH2)16CO-RRR-SLPRSSCFGGRMDRIGAQSGLGCNSFrY-NH2 (Stearoyl-RRRSLPRSSCFGGRMDRIGAQSGLGCNSF[dR]Y-NH2; not fully specified (bridges); printed as CH3(CH2)16CO-RRR-SLPRSSCFGGRMDRIGAQSGLG; cysteine pairing not given here; listed as Homo Sapiens) [SEQ ID NO. 40] | inactive | inactive | loss or diminished of activity |  |
| CH3(CH2)16COKKGGGGLSKGCFGLKLDRIGSMSGLGC (Stearoyl-KKGGGGLSKGCFGLKLDRIGSMSGLGC; not fully specified (bridges); printed as CH3(CH2)16COKKGGGGLSKGCFGLKLDRIGSMSGLGC; cysteine pairing not given here; listed as Homo Sapiens) [SEQ ID NO. 86] | 80.2 nM | 42.37 pmol/mL |  |  |
| CH3(CH2)16COKKKGGGGLSKGCFGLKLDRIGSMSGLGC (Stearoyl-KKKGGGGLSKGCFGLKLDRIGSMSGLGC; not fully specified (bridges); printed as CH3(CH2)16COKKKGGGGLSKGCFGLKLDRIGSMSGLGC; cysteine pairing not given here; listed as Homo Sapiens) [SEQ ID NO. 68] | 330.29 nM | 250.33 pmol/mL |  |  |
